Assay results as given in ChEMBL document CHEMBL2177100, “Structural optimization and structure-activity relationships of N2-(4-(4-Methylpiperazin-1-yl)phenyl)-N8-phenyl-9H-purine-2,8-diamine derivatives, a new class of reversible kinase inhibitors targeting both EGFR-activating and resistance mutations” (J Med Chem, 2012).
Calls of active or inactive are those of the source. The calls are words filed in the database; no cut-off is given here.

Columns and labels:
[1] = target: Glycogen synthase kinase-3 beta (Homo sapiens, UniProt P49841); test: Inhibition of human recombinant GSK3beta by radiometric kinase assay
Glycogen synthase kinase-3 beta, sequence (P49841 whole entry): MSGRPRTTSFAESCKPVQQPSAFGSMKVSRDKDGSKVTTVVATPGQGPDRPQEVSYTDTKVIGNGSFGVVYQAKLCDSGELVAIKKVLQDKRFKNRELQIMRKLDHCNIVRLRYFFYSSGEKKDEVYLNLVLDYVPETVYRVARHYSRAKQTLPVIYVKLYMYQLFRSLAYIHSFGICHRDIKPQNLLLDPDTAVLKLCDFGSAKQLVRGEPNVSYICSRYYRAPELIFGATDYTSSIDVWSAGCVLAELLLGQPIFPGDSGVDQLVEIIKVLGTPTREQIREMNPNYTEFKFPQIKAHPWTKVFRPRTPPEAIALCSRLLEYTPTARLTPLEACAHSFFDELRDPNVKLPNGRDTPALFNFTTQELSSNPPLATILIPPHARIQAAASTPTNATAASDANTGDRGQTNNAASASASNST

[2] = Half life in Sprague-Dawley rat at 20 mg/kg, po; format: ADME, organism-based; set-up: dose 20 mg/kg, route oral; conditions: in vivo
FaDu = test: Cytotoxicity against human FADU cells incubated for 72 hrs by MTT assay; format: functional, cell-based
[3] = target: ALK tyrosine kinase receptor (Homo sapiens, UniProt Q9UM73); test: Inhibition of human recombinant ALK by radiometric kinase assay
[4] = target: Mitogen-activated protein kinase 1 (Homo sapiens, UniProt P28482); test: Inhibition of human recombinant ERK2 by radiometric kinase assay
Mitogen-activated protein kinase 1, sequence (P28482 whole entry): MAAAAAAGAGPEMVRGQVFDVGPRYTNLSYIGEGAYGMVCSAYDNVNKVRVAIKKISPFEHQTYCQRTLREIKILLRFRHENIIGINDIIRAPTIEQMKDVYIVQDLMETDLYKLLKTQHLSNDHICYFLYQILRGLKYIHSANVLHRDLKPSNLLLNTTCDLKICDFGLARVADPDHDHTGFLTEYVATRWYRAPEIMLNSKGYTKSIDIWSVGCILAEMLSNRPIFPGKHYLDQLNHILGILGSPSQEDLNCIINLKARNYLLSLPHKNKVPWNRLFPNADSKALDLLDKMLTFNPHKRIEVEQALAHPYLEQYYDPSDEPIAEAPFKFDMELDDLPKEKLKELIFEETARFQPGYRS

[5] = target: Receptor tyrosine-protein kinase erbB-2 (Homo sapiens, UniProt P04626); test: Inhibition of human recombinant ERBB2 by radiometric kinase assay
HCC827 [6] = test: Antitumor activity against human HCC827 cells xenografted in BALB/c mouse assessed as reduction tumor volume at 20 mg/kg, po qd; format: functional, organism-based; set-up: dose 20 mg/kg
HCC827 [7] = test: Antitumor activity against human HCC827 cells xenografted in BALB/c mouse assessed as reduction in Ki67 expression at 1 mg/kg/day, po for 3 days by immunohistochemistry; format: functional, organism-based
[8] = target: Tyrosine-protein kinase JAK2 (Homo sapiens, UniProt O60674); test: Inhibition of human recombinant JAK2 by radiometric kinase assay
NCI-H292 = test: Cytotoxicity against human NCI-H292 cells incubated for 72 hrs by MTT assay; format: functional, cell-based; conditions: NCI-H292, 72 h
NCI-H1975 = test: Antitumor activity against human NCI-H1975 cells xenografted in BALB/c mouse assessed as reduction in Ki67 expression at 50 mg/kg/day, po for 10 days by immunohistochemistry; format: functional, organism-based
[9] = target: MAP kinase-interacting serine/threonine-protein kinase 1 (Homo sapiens, UniProt Q9BUB5); test: Inhibition of human recombinant MNK1 by radiometric kinase assay
MAP kinase-interacting serine/threonine-protein kinase 1, sequence (Q9BUB5 whole entry): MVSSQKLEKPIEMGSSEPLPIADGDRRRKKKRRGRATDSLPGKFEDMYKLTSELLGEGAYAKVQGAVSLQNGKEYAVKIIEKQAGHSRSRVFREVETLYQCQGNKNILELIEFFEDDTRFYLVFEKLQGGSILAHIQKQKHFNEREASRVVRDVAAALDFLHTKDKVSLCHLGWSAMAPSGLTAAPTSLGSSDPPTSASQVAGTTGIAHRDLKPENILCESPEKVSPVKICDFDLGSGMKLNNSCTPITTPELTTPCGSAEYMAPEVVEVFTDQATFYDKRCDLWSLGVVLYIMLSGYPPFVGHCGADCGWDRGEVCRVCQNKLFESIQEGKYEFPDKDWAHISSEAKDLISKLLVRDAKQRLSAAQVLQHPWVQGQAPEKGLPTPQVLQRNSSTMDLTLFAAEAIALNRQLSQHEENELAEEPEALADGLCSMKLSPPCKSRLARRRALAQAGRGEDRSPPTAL

[10] = target: Macrophage-stimulating protein receptor (Homo sapiens, UniProt Q04912); test: Inhibition of human recombinant MST1R by radiometric kinase assay
Macrophage-stimulating protein receptor, sequence (Q04912 25-304 limits assumed): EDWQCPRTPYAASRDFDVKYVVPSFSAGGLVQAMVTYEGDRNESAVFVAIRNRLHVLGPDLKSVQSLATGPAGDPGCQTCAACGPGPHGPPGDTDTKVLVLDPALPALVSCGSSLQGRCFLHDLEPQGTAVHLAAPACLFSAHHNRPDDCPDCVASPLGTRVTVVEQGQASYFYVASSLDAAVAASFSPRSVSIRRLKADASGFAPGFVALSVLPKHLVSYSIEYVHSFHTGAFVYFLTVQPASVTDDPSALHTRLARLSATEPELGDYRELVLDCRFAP
Macrophage-stimulating protein receptor, sequence (Q04912 310-1400 limits assumed): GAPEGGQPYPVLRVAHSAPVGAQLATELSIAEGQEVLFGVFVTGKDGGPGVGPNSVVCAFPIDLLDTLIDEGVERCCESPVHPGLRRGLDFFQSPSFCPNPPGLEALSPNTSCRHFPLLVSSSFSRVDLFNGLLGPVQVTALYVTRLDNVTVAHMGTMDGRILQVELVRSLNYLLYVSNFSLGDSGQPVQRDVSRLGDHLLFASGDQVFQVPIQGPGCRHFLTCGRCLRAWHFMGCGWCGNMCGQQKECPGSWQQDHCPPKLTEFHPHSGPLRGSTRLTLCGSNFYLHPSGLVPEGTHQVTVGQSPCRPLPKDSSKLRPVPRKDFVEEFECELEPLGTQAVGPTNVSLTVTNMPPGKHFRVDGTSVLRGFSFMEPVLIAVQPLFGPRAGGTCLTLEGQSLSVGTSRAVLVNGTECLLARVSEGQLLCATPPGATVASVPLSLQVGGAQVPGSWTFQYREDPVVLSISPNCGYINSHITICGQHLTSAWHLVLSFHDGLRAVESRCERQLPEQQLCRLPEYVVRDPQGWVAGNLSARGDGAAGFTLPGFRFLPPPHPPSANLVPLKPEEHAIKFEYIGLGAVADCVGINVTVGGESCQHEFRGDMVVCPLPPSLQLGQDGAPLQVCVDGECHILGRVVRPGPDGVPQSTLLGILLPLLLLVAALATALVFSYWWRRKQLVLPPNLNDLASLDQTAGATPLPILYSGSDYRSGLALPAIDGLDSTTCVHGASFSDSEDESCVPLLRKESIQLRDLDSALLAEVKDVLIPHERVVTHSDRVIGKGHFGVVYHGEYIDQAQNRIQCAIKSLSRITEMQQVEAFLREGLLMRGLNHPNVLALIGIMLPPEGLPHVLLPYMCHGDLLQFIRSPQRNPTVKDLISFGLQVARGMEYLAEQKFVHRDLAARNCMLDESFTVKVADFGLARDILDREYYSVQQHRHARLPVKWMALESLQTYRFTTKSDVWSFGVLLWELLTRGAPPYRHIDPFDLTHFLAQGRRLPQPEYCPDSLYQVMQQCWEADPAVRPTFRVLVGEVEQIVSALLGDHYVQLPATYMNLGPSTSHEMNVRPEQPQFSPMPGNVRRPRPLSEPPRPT

[11] = target: Serine/threonine-protein kinase N2 (Homo sapiens, UniProt Q16513); test: Inhibition of human recombinant PKN2 by radiometric kinase assay
Serine/threonine-protein kinase N2, sequence (Q16513 whole entry): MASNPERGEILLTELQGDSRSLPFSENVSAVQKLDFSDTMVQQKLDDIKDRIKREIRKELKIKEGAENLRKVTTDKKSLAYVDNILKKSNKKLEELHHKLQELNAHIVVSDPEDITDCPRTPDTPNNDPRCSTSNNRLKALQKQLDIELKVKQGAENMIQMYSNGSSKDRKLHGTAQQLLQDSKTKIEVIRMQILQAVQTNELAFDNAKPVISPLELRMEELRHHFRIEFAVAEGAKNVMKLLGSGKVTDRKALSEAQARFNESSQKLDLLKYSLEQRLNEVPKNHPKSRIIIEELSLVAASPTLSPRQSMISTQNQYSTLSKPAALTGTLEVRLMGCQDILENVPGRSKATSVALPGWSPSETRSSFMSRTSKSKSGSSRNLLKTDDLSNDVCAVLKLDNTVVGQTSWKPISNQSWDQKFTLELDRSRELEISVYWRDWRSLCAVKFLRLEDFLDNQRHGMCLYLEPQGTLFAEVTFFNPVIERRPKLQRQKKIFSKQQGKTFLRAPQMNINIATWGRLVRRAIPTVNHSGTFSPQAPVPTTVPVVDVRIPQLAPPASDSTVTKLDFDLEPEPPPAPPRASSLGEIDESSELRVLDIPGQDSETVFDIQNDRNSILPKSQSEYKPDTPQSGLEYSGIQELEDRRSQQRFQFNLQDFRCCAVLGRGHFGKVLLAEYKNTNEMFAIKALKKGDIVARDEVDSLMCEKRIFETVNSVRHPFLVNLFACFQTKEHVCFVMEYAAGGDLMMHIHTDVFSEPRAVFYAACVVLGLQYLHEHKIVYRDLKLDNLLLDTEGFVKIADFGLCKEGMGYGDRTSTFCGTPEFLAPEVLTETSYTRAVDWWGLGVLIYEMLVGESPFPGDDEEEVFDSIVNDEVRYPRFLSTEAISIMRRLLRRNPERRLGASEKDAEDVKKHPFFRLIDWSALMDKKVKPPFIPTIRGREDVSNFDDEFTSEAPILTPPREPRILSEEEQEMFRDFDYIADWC

[12] = target: Protein kinase C theta type (Homo sapiens, UniProt Q04759); test: Inhibition of human recombinant PKCtheta by radiometric kinase assay
[13] = target: Tyrosine-protein kinase JAK3 (Homo sapiens, UniProt P52333); test: Inhibition of human recombinant JAK3 by radiometric kinase assay
[14] = target: Interleukin-1 receptor-associated kinase 4 (Homo sapiens, UniProt Q9NWZ3); test: Inhibition of human recombinant IRAK4 by radiometric kinase assay
HepG2 = test: Cytotoxicity against human HepG2 cells incubated for 72 hrs by MTT assay; format: functional, cell-based; conditions: HepG2, 72 h
HCC827 [15] = test: Antitumor activity against human HCC827 cells xenografted in BALB/c mouse assessed as reduction tumor volume at 1 mg/kg, po qd; format: functional, organism-based; set-up: dose 1 mg/kg
[16] = target: Rho-associated protein kinase 2 (Homo sapiens, UniProt O75116); test: Inhibition of human recombinant ROCK2 by radiometric kinase assay
Rho-associated protein kinase 2, sequence (O75116 whole entry): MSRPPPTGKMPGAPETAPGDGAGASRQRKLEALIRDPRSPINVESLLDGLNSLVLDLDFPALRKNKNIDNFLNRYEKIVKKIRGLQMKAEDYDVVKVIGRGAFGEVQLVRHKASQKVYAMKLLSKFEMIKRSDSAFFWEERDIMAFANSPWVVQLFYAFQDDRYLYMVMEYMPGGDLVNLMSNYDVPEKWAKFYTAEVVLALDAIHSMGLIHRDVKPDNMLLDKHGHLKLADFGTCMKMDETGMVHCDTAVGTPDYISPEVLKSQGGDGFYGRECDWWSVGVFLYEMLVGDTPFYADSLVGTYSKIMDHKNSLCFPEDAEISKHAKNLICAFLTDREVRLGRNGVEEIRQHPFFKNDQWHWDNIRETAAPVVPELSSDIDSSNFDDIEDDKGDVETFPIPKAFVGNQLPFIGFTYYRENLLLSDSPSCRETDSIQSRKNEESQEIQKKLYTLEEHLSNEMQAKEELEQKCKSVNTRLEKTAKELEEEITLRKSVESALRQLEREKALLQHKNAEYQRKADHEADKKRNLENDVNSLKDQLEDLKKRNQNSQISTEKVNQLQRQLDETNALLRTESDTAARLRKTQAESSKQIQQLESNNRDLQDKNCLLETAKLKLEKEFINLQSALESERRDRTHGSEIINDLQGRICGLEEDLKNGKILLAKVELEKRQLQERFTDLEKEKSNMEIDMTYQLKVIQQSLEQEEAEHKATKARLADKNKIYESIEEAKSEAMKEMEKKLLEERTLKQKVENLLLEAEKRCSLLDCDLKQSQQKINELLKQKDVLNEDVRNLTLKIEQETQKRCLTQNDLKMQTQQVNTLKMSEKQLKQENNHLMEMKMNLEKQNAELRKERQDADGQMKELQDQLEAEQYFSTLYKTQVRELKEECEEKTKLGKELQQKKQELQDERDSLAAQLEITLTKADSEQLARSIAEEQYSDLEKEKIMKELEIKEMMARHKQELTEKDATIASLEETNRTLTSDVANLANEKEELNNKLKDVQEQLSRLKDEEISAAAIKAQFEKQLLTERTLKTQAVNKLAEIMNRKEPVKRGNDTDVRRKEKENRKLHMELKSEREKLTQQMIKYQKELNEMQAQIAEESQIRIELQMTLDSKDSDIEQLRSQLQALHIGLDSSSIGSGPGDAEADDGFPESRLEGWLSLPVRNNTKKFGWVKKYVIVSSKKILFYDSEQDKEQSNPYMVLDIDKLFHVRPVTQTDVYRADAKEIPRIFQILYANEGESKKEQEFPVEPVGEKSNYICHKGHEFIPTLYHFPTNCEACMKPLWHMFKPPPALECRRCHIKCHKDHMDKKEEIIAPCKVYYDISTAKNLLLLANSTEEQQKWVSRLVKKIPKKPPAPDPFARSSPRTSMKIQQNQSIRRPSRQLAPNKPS

CN1CCN(c2ccc(Nc3ncc4nc(Nc5ccccc5)n(C5CCCC5)c4n3)cc2)CC1
IC50 [1]: > 10000 nM | half-life [2]: 4.86 h | IC50 (FaDu): 15 nM | IC50 [3]: 2300 nM | IC50 [4]: > 10000 nM | IC50 [5]: 60 nM | TGI (HCC827 [6]): Active | Activity (HCC827 [7]): Active | IC50 [8]: 1200 nM | IC50 (NCI-H292): 45 nM | Activity (NCI-H1975): Active | IC50 [9]: 6700 nM | IC50 [10]: > 10000 nM | IC50 [11]: > 10000 nM | IC50 [12]: 3600 nM | IC50 [13]: 2600 nM | IC50 [14]: > 10000 nM | IC50 (HepG2): > 5000 nM | TGI (HCC827 [15]): Active | IC50 [16]: > 10000 nM
